Results published in patent US9963476B2, “Antioxidant compound having anti atherosclerotic effect and preparation thereof” (Council of Scientific and Industrial Research, priority 2015, dated 2018).

Experiments:
[1] = test system: Ang-II-induced H2O2 production in HAEC; assay: H2O2 levels by Amplex red assay; assay type: cell-based, human; conditions: Ang-II 500 nM, 16 h
Protocol: Amplex red reagent was used to detect the released H2O2 from cells. […] Immediately, formation of resorufin fluorescence was measured in multi mode reader (PerkinElmer) with λex=540 and λem=585.
Ang-II is known to increase oxidative stress through increased production of H2O2 (Doughan A K, Harrison D G, Dikalov S I. Circ Res (2008) 102:488-96). […] Further, we assessed the effect of Mito-Esc on H2O2-induced mitochondrial membrane depolarization. HAEC were treated with H2O2 (500 μM) in the presence or absence of Mito-Esc for a period of 16 h and mitochondrial membrane potential was measured using a mitochondrial membrane sensor kit. Mito-Sensor is a cationic dye that fluoresces differently in apoptotic and nonapoptotic cells. […] In apoptotic cells, membrane potentials are altered and the Mito-Sensor dye cannot accumulate in mitochondria and, thus, remain as monomers leading to a green fluorescence.

[2] = test system: Ang-II-induced atherosclerosis in ApoE−/− mice; assay: Serum lipid profile of Ang-II treated ApoE−/− mice; assay type: in vivo; conditions: serum, ApoE−/− mice, 45 days; Ang-II alone or Ang-II + Mito-Esc
Protocol: Experiments were conducted in 2-month-old male apolipoprotein E knockout (ApoE^−/−) mice according to the guidelines formulated for care and use of animals in scientific research (ICMR, New Delhi, India) at a CPCSEA (Committee for the Purpose of Control and Supervision of Experiments on Animals) registered animal facility. […] Animals were randomly divided into 3 groups each n=7:1) control 2) Ang-II treatment and 3) Mito-Esculetin+Ang-II treatment. Ang-II and Mito-Esculetin treatment groups received Ang-II (sigma) at a dose of 1.44 mg/kg/day for 6 weeks through sub-cutaneous route where as control group received normal saline. Mito-Esculetin treatment group received the compound at a dose of 0.5 mg/kg/day in normal drinking water. All animals were fed on normal chow throughout the study. After 6 weeks, all groups of animals were sacrificed as per standard protocols for euthanasia.
We further analyzed the vascular remodelling employing histological stains in tissue sections of thoracic aortas. […] In tune with this, we have also measured Mac-3 levels by flow cytometry.

[3] = test system: human aortic endothelial cells (HAEC); assay: Trypan blue cell viability assay, oxidant-induced endothelial cell death; assay type: cell-based; conditions: 2.5 μM, 2 h pretreatment, H2O2 500 μM or Ang-II 500 nM, 24 h
Protocol: Human aortic endothelial cells (HAECs) were obtained from ATCC (Manassas, Va.) and maintained (37° C. 5% CO2) in basal medium supplemented with 10% FBS, VEGF (5 ng/mL), hEGF (5 ng/mL), hFGF (5 ng/mL), IGF-1 (15 ng/mL), ascorbic acid (50 μg/mL), hydrocortisone (1 μg/mL), amphotericin (15 ng/mL), gentamicin (30 ng/mL) and heparin (0.75 Units/mL). Cells used in this study were between passages 4 and 9. Esculetin, Mito-Esc, TPP and nitric oxide synthase inhibitor (L-NAME) were added 2 h before the addition of H2O2 or Ang-II.
At the end of the treatments, cells were harvested and re-suspended in 0.4% trypan blue (Life Technologies) and percent cell viability was counted using cell countess chamber (Life Technologies).
For this, cells were pretreated for 2 h with either Mito-Esc or esculetin before they were incubated with either H2O2 or Ang-II.

HAEC = assay: Cellular uptake: Mito-Esc/esculetin quantified by ESI-MS in cytosolic and mitochondrial fractions of HAEC; assay type: in vitro ADME, human; conditions: HAEC, 2.5 μM, 24 h
Protocol: After the treatment, cells were washed thrice with PBS. Similarly Mito-Esculetin+ Ang-II treatment group, Ang-II alone treatment group and control Apo E^−/− mice aortic tissue was taken. The isolation of mitochondrial and cytosolic extracts was carried out using a commercially available Proteo Extract Cytosol/Mitochondria Fractionation Kit (Cat. no. QIA88-Merck, USA) according to manufacturer's instructions. Initially, mitochondrial and cytosolic fractions were separated using a commercially available kit as mentioned elsewhere. Mito-Esc was quantified in the mitochondrial and cytosolic fractions obtained from HAEC and aorta of ApoE^−/− mice of different treatment groups as mentioned in Animal Experiments section (Table-1). Electrospray ionization (ESI)-MS. ESI-MS (positive mode) measurements were performed using a quadrupole time-of-flight mass spectrometer (QSTAR XL, Applied Biosystems/MDS Sciex, Foster City, Calif., USA). The data acquisition was under the control of Analyst QS software (Applied Biosystems). For the CID (collision-induced dissociation) experiments, the precursor ions were selected using the quadrupole analyzer and the product ions were analyzed using the TOF analyzer.

[4] = test system: AMPK1-α phosphorylation (Thr-172); assay: Western blot of AMPK phosphorylation in HAEC; assay type: cell-based, human; conditions: H2O2 500 μM, 2.5 μM, 8 h
Protocol: Previously, it was shown that AMPK co-immunoprecipitates with cardiac endothelial NO synthase (eNOS) and phosphorylates Ser-1177 in the presence of Ca^2+-calmodulin (CaM) to activate eNOS both in vitro and during ischaemia in rat hearts (FEBS Lett. (1999) 443:285-289). To test whether Mito-Esc mediates increased phosphorylation of eNOS through AMPK activation, initially, HAEC were treated various concentrations of Mito-Esc (1-5 μM) for 8 h and AMPK1-α phosphorylation (Thr-172) levels were measured. […] Next, we investigated the phospho-AMPK1-α levels in HAEC treated with H2O2 in the presence or absence of either Mito-Esc or native esculetin.

[5] = test system: caspase-3 and -8 activation in HAEC; assay: Caspase-3 and -8 activity in HAEC lysates; assay type: cell-based, human; conditions: 2.5 μM pretreatment
Protocol: HAEC were washed twice with cold DPBS and lysed in buffer containing 10-mM Tris-HCl, 10-mM NaH2PO4/Na2HPO4 (pH, 7.5). 130-mM NaCl. 1% Triton, and 10-mM sodium pyrophosphate. Cell lysates were incubated with either with caspase-3 fluorogenic substrate (N-acetyl-Asp-Glu-Val-Asp-7-amido-4-methylcoumarin) or caspase-8 fluorogenic substrate (N-acetyl-Ileu-Glu-Thr-Asp-7 amido-4-methylcoumarin) at 37° C. for 1 h. The 7-amido-4-methyl-coumarin liberated was measured in a multi mode reader (PerkinElmer) with λex=380 nm and λem=460 nm.

[6] = test system: nitric oxide generation in HAEC; assay: Intracellular nitric oxide levels by DAF-2DA fluorescence; assay type: cell-based, human; conditions: H2O2 500 μM, 2.5 μM, 4 h
Protocol: Intracellular nitric oxide levels were monitored by using the Diaminofluorescein-diacetate (DAF-2DA) fluorescence probe. After the treatments, cells were washed with DPBS and incubated in fresh culture medium without fetal bovine serum (FBS). DAF-2DA was added at a final concentration of 5 μM, and the cells were incubated for 30 minutes. The cells were washed twice with DPBS and maintained in culture medium. Fluorescence was monitored by using Olympus fluorescence microscope with FITC filter (λex=488 nm and […]). Fluorescence intensity was calculated by Image-Pro plus7.0 software.
To gain mechanistic insight on Mito-Esc-mediated protection of endothelial cells from oxidant-induced endothelial cell death, initially we hypothesized that Mito-Esc may augment intracellular nitric oxide generation. To study this, HAEC were treated with both Mito-Esc and esculetin in the presence or absence of H2O2 for a period of 4 h and nitric oxide (NO) levels were monitored by DAF-2 derived green fluorescence. Previously, it has been shown that DAF-2 forms a fluorescent triazole-type product in the presence of an oxidant derived from nitric oxide and oxygen interaction (Proc. Natl. Acad. Sci. USA 99: 11127-11132; 2002.; Am. J. Physiol. Regul. Integ. Comp. Physiol. 286:R344-R431; 2004). […] Next, we investigated the possible role of endothelial nitric oxide synthase (eNOS) in mediating the Mito-Esc induced NO generation in HAEC. For this, endothelial cells were treated with various concentrations of Mito-Esc (1-5 μM) for a period of 8 h. […] To further substantiate the results of DAF fluorescence, eNOS phosphorylation was measured in HAEC incubated with either with H2O2 or Ang-II for 8 h in cells pretreated with Mito-Esc or native esculetin. It was observed that both H2O2 and Ang-II caused a reduction in Phospho eNOS (Ser-1177) levels (FIG. 4D). Ang-II treatment imposed a drastic inhibition of phospho-eNOS levels when compared to H2O2 treatment in endothelial cells (FIG. 4D).

Molecule	H2O2 generation compared to untreated conditions [1]	HDL [2]	LDL [2]	Total Cholesterol [2]	Triglycerides [2]	VLDL [2]	oxidant (H2O2 and Ang-II)-induced endothelial cell death [3]	Cytosolic fraction (HAEC)	AMPK1-α phosphorylation in the presence of H2O2 [4]	H2O2 and Ang-II-induced caspase-3 and -8 activation [5]	H2O2-mediated depletion of NO levels [6]
Angiotensin-II (DRVYIHPF; Angiotensin-2; UniProt P01019 25-32, looked up) [Ang-II, inducer of oxidative stress and atherosclerosis in the models, reference compound]	around 2.7 fold	02.21 ± 1.2 mg/dL	423.93 ± 29.6 mg/dL	656.19 ± 34.2 mg/dL	234.50 ± 21.5 mg/dL	46.9 ± 2.2 mg/dL					
O=c1ccc2cc(O)c(O)cc2o1 [Esculetin, 6,7-dihydroxycoumarin, reference compound]							but not esculetin significantly inhibited	6249 ± 235 nmol/mg protein	significantly decreased	marginal effect	did not show any noticeable effect
c1ccc(P(c2ccccc2)c2ccccc2)cc1 [TPP^+, triphenylphosphonium cation]							did not have any appreciable cytotoxic/cytoprotective effect				
